Experimental data as given in patent publication US10829501B2 (BRISTOL-MYERS SQUIBB COMPANY, priority 2016, dated 2020).
pIC50: −log10 of the molar value. Counter-ions that a name gives are not always drawn.

Molecular target: ROCK2 (Homo sapiens, UniProt O75116)
Assay: ROCK2 kinase inhibition assay (LABCHIP 3000 Reader, FITC peptide substrate);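 further: rho kinase reaction read by separating phosphorylated from unphosphorylated peptide on chip, with inhibition of kinase activity computed per concentration across a dose-response series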
Conditions: not given

Chain of ROCK2 (O75116 whole entry, species assumed): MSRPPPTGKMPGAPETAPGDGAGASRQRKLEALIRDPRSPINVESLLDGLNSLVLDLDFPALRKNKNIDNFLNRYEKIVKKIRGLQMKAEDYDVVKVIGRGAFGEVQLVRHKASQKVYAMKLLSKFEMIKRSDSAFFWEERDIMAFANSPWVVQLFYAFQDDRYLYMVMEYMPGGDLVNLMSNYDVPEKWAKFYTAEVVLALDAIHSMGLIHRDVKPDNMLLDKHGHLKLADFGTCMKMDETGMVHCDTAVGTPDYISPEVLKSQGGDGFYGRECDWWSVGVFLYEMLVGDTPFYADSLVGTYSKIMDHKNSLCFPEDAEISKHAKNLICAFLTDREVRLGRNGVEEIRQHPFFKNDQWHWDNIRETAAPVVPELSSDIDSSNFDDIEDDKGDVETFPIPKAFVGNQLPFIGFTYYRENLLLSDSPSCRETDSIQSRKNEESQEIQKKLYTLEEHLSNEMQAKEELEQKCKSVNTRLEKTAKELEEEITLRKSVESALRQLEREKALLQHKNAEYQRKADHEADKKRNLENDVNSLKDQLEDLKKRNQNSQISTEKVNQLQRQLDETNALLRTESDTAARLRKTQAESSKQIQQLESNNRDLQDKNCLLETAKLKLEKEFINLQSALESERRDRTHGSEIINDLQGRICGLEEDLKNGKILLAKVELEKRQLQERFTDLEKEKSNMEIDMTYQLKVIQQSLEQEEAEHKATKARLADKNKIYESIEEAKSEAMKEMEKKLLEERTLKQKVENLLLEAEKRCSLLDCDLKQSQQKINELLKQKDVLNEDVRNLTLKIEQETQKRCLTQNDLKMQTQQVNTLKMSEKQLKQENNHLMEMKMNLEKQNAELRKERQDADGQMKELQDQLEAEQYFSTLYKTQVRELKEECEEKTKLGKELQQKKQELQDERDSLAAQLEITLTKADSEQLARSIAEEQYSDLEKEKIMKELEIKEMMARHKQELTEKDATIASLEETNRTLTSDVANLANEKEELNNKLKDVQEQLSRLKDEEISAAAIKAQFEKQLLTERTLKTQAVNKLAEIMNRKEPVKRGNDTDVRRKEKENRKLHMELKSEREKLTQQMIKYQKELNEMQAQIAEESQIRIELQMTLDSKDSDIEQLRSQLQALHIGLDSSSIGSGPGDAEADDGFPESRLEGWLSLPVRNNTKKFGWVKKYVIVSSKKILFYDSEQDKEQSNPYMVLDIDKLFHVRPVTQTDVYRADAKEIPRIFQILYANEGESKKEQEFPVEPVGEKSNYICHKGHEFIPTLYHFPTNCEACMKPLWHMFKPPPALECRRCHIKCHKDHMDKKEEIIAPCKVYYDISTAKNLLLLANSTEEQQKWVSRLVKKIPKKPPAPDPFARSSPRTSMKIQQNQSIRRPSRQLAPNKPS

Q: `[H][C@]1(Oc2ncccc2C(N)=O)C[C@@]2(C[C@H](NC(=O)c3cn4cc(C(N)=O)ccc4n3)C2)C1` (stereo partly drawn) [Example 63, N^2-((aR)-6-((3-carbamoylpyridin-2-yl)oxy)spiro[3.3]heptan-2-yl)imidazo[1,2-a]pyridine-2,6-dicarboxamide] was tested. Which pIC50 did it give?
A: Its pIC50 is 5.60 to 6.60.

Q: With `Cc1ncsc1CCOc1ccc2c(C(=O)N[C@H]3CC4(C3)C[C@H](Oc3ncccc3C(N)=O)C4)cnn2c1` (stereo partly drawn) [Example 128, N-((aR)-6-((3-carbamoylpyridin-2-yl)oxy)spiro[3.3]heptan-2-yl)-6-(2-(4-methylthiazol-5-yl)ethoxy) pyrazolo[1,5-a]pyridine-3-carboxamide, trifluoroacetate] as the molecule, how does the pIC50 read?
A: The pIC50 was 7.30 to 8.30.

Q: With `CC(C)(O)COc1ccc2c(C(=O)NC3CC4(C3)CC(Oc3cc(-c5ccccc5F)ccc3C(N)=O)C4)cnn2c1` (stereo not drawn) [Example 229, N-(6-((4-carbamoyl-2′-fluoro-[1,1′-biphenyl]-3-yl)oxy)spiro[3.3]heptan-2-yl)-6-(2-hydroxy-2-methylpropoxy)pyrazolo[1,5-a]pyridine-3-carboxamide] as the molecule, how does the pIC50 read?
A: Its pIC50 is 7.30 to 8.30.

Q: With `N#Cc1cc(C(=O)N[C@H]2CC3(C2)C[C@H](Oc2ncccc2C(N)=O)C3)cc(-c2cnn(C(F)F)c2)c1` (stereo partly drawn) [Example 198, 2-(((aR)-6-(3-cyano-5-(1-(difluoromethyl)-1H-pyrazol-4-yl)benzamido)spiro[3.3]heptan-2-yl)oxy)nicotinamide] as the molecule, how does the pIC50 read?
A: The pIC50 was over 8.30.

Q: How did the pIC50 turn out when `NC(=O)c1cccnc1O[C@H]1CC2(C[C@H](NC(=O)c3cnn4c(C5CC5)c(OC5CCS(=O)(=O)CC5)ccc34)C2)C1` (stereo partly drawn) [Example 351, N-((aR)-6-((3-carbamoylpyridin-2-yl)oxy)spiro[3.3]heptan-2-yl)-7-cyclopropyl-6-((1,1-dioxidotetrahydro-2H-thiopyran-4-yl)oxy)pyrazolo[1,5-a]pyridine-3-carboxamide] was run?
A: The pIC50 was over 8.30.

Q: With `CC(C)(O)COc1ccc2c(C(=O)NC3CC4(C3)CC(Oc3c(F)cc(F)cc3C(N)=O)C4)cnn2c1` (stereo not drawn) [Example 268, N-(6-(2-carbamoyl-4,6-difluorophenoxy)spiro[3.3]heptan-2-yl)-6-(2-hydroxy-2-methylpropoxy)pyrazolo[1,5-a]pyridine-3-carboxamide] as the molecule, how does the pIC50 read?
A: Its pIC50 is 5.60 to 6.60.

Q: How did the pIC50 turn out when `Cn1cc(-c2ccc3c(C(=O)NC4CC5(C4)CC(Oc4ncccc4C(N)=O)C5)nc(C(F)F)n3c2)c(C(F)(F)F)n1` [Example 438, N-((aR)-6-((3-carbamoylpyridin-2-yl)oxy)spiro[3.3]heptan-2-yl)-3-(difluoromethyl)-6-(1-methyl-3-(trifluoromethyl)-1H-pyrazol-4-yl)imidazo[1,5-a]pyridine-1-carboxamide] was run?
A: Its pIC50 is 7.30 to 8.30.

Q: `CC(C)(O)COc1ccc2c(C(=O)N[C@H]3CC4(C3)C[C@H](Oc3ncccc3C(N)=O)C4)cnn2c1N1CCCCC1=O` (atropisomer, axis not shown; (aR)) [Example 69, N-((aR)-6-((3-carbamoylpyridin-2-yl)oxy)spiro[3.3]heptan-2-yl)-6-(2-hydroxy-2-methylpropoxy)-7-(2-oxopiperidin-1-yl)pyrazolo[1,5-a]pyridine-3-carboxamide, trifluoroacetate] was tested. Which pIC50 did it give?
A: The pIC50 was 6.60 to 7.30.

Q: With `CC(C)(O)COc1ccc2c(C(=O)NC3CC4(C3)CC(Oc3cc(-c5cccc(COC(=O)NCCC(=O)O)c5)ccc3C(N)=O)C4)cnn2c1` (stereo not drawn) [Example 249, 3-((((4′-carbamoyl-3′-((6-(6-(2-hydroxy-2-methylpropoxy)pyrazolo[1,5-a]pyridine-3-carboxamido)spiro[3.3]heptan-2-yl)oxy)-[1,1′-biphenyl]-3-yl)methoxy)carbonyl)amino)propanoic acid] as the molecule, how does the pIC50 read?
A: Its pIC50 is over 8.30.

Q: How did the pIC50 turn out when `COCCOCCn1nc(C(=O)N[C@H]2CC3(C2)C[C@H](Oc2ncccc2C(N)=O)C3)c2ccccc21` (stereo partly drawn) [Example 78, N-((aR)-6-((3-carbamoylpyridin-2-yl)oxy)spiro[3.3]heptan-2-yl)-1-(2-(2-methoxy-ethoxy)ethyl)-1H-indazole-3-carboxamide, trifluoroacetate] was run?
A: Its pIC50 is 6.60 to 7.30.

Q: How did the pIC50 turn out when `COCCNC(=O)c1cccc(-c2ccc(C(N)=O)c(OC3CC4(CC(NC(=O)c5cnn6cc(OCC(C)(C)O)ccc56)C4)C3)c2)c1` (stereo not drawn) [Example 293, 3′-((6-(6-(2-hydroxy-2-methylpropoxy)pyrazolo[1,5-a]pyridine-3-carboxamido)spiro[3.3]heptan-2-yl)oxy)-N3-(2-methoxyethyl)-[1,1′-biphenyl]-3,4′-dicarboxamide] was run?
A: The pIC50 was 7.30 to 8.30.

Q: With `NC(=O)c1cccnc1O[C@H]1CC2(C[C@H](NC(=O)c3nn(C(F)F)c4cc(OCc5ccccc5)ccc34)C2)C1` (stereo partly drawn) [Example 171, 6-(benzyloxy)-N-((aR)-6-((3-carbamoylpyridin-2-yl)oxy)spiro[3.3]heptan-2-yl)-1-(difluoromethyl)-1H-indazole-3-carboxamide, trifluoroacetate] as the molecule, how does the pIC50 read?
A: Its pIC50 is 7.30 to 8.30.

Q: `Cn1cc(-c2ccc3c(C(=O)N[C@H]4CC5(C4)C[C@H](Oc4ncccc4C(N)=O)C5)nn(C(F)F)c3c2)cn1` (stereo partly drawn) [Example 106, N-((aR)-6-((3-carbamoylpyridin-2-yl)oxy)spiro[3.3]heptan-2-yl)-1-(difluoromethyl)-6-(1-methyl-1H-pyrazol-4-yl)-1H-indazole-3-carboxamide, trifluoroacetate] was tested. Which pIC50 did it give?
A: Its pIC50 is over 8.30.

Q: `NC(=O)c1ccccc1O[C@H]1CC2(C[C@H](NC(=O)N3Cc4ccccc4C3)C2)C1` (stereo partly drawn) [Example 41, N-[(aR)-6-(2-carbamoylphenoxy)spiro [3.3]heptan-2-yl]-2,3-dihydro-1H-isoindole-2-carboxamide] was tested. Which pIC50 did it give?
A: Its pIC50 is 6.60 to 7.30.

Q: With `CC1(C)Cc2cccc(C(=O)N[C@H]3CC4(C3)C[C@H](Oc3ncccc3C(N)=O)C4)c2O1` (stereo partly drawn) [Example 163, 2-(((aR)-6-(2,2-dimethyl-2,3-dihydrobenzofuran-7-carboxamido)spiro[3.3]heptan-2-yl)oxy) nicotinamide] as the molecule, how does the pIC50 read?
A: Its pIC50 is 5.60 to 6.60.

Q: With `CC(C)(O)COc1ccc2c(C(=O)NC3CC4(C3)CC(Oc3cc(OC(F)F)ccc3C(N)=O)C4)cnn2c1` (stereo not drawn) [Example 219, N-(6-(2-carbamoyl-5-(difluoromethoxy)phenoxy)spiro[3.3]heptan-2-yl)-6-(2-hydroxy-2-methylpropoxy)pyrazolo[1,5-a]pyridine-3-carboxamide] as the molecule, how does the pIC50 read?
A: The pIC50 was 7.30 to 8.30.

Q: How did the pIC50 turn out when `CN(c1ccccc1)S(=O)(=O)c1cccc(C(=O)N[C@H]2CC3(C2)C[C@H](Oc2ncccc2C(N)=O)C3)c1` (stereo partly drawn) [Example 131, 2-(((aR)-6-(3-(N-methyl-N-phenylsulfamoyl)benzamido)spiro[3.3]heptan-2-yl)oxy) nicotinamide, trifluoroacetate] was run?
A: The pIC50 was 7.30 to 8.30.

Q: With `CN1CCc2nc(-c3cc(C#N)cc(C(=O)N[C@H]4CC5(C4)C[C@H](Oc4ncccc4C(N)=O)C5)c3)sc2C1` (stereo partly drawn) [Example 200, 2-(((aR)-6-(3-cyano-5-(5-methyl-4,5,6,7-tetrahydrothiazolo[5,4-c]pyridin-2-yl)benzamido)spiro[3.3]heptan-2-yl)oxy)nicotinamide, bis-trifluoroacetate] as the molecule, how does the pIC50 read?
A: Its pIC50 is 7.30 to 8.30.

Q: With `Cn1ccc(-c2cc(C#N)cc(C(=O)N[C@H]3CC4(C3)C[C@H](Oc3ncccc3C(N)=O)C4)c2)cc1=O` (stereo partly drawn) [Example 192, 2-(((aR)-6-(3-cyano-5-(1-methyl-2-oxo-1,2-dihydropyridin-4-yl)benzamido)spiro[3.3]heptan-2-yl)oxy)nicotinamide, trifluoroacetate] as the molecule, how does the pIC50 read?
A: The pIC50 was 7.30 to 8.30.

Q: `NC(=O)c1cccnc1O[C@H]1CC2(C[C@H](NC(=O)c3cnn4c(C5CC5)c(OCCC(F)(F)F)ccc34)C2)C1` (stereo partly drawn) [Example 107, N-((aR)-6-((3-carbamoylpyridin-2-yl)oxy)spiro[3.3]heptan-2-yl)-7-cyclopropyl-6-(3,3,3-trifluoropropoxy) pyrazolo[1,5-a]pyridine-3-carboxamide, trifluoroacetate] was tested. Which pIC50 did it give?
A: The pIC50 was 7.30 to 8.30.

Q: `[H][C@]1(Oc2ncccc2C(N)=O)C[C@@]2(C[C@H](NC(=O)c3nnn4cc(OCC(C)(C)O)ccc34)C2)C1` (stereo partly drawn) [Example 375, N-((aR)-6-((3-carbamoylpyridin-2-yl)oxy)spiro[3.3]heptan-2-yl)-6-(2-hydroxy-2-methylpropoxy)-[1,2,3]triazolo[1,5-a]pyridine-3-carboxamide] was tested. Which pIC50 did it give?
A: The pIC50 was 6.60 to 7.30.

Q: With `CC(C)(O)COc1ccc2c(C(=O)NC3CC4(C3)CC(Oc3cc(-c5ccc(S(C)(=O)=O)cc5)ccc3C(N)=O)C4)cnn2c1` (stereo not drawn) [Example 286, N-(6-((4-carbamoyl-4′-(methylsulfonyl)-[1,1′-biphenyl]-3-yl)oxy)spiro[3.3]heptan-2-yl)-6-(2-hydroxy-2-methylpropoxy)pyrazolo[1,5-a]pyridine-3-carboxamide] as the molecule, how does the pIC50 read?
A: The pIC50 was 7.30 to 8.30.

Same assay, conditions: read-out: ROCK2 Activity (ROCK2 IC50); 5 μM ATP, 1.5 μM peptide substrate, pH 7.5

Q: `Cn1cc(-c2cc(C(=O)NC3CC4(C3)CC(Oc3ncccc3C(N)=O)C4)cc(C(F)(F)F)c2)cn1` [Example 428, 2-(((aR)-6-(3-(1-methyl-1H-pyrazol-4-yl)-5-(trifluoromethyl)benzamido)spiro[3.3]heptan-2-yl)oxy)nicotinamide] was tested. Which pIC50 did it give?
A: The pIC50 was over 8.30.

Q: `Cn1cncc1-c1ccc2c(C(=O)NC3CC4(C3)CC(Oc3ncccc3C(N)=O)C4)nc(C(F)F)n2c1` [Example 437, N-((aR)-6-((3-carbamoylpyridin-2-yl)oxy)spiro[3.3]heptan-2-yl)-3-(difluoromethyl)-6-(1-methyl-1H-imidazol-5-yl)imidazo[1,5-a]pyridine-1-carboxamide] was tested. Which pIC50 did it give?
A: Its pIC50 is 7.30 to 8.30.

Q: With `Cc1c(C(=O)NC2CC3(C2)CC(Oc2ncccc2C(N)=O)C3)cnn1-c1ccc(C#N)cc1` [Example 385, N-[(aR)2-({6-[1-(4-cyanophenyl)-5-methyl-1H-pyrazole-4-amido]spiro[3.3]heplan-2-yl}oxy)pyridine-3-carboxamide1 trifluoroacetic acid salt] as the molecule, how does the pIC50 read?
A: Its pIC50 is 7.30 to 8.30.

Q: How did the pIC50 turn out when `Cc1c(-c2cc(C(=O)NC3CC4(C3)CC(Oc3ncccc3C(N)=O)C4)cc(C(F)(F)F)c2)cnn1C` [Example 454, 2-(((aR)-6-(3-(1,5-dimethyl-1H-pyrazol-4-yl)-5-(trifluoromethyl)benzamido)spiro[3.3]heptan-2-yl)oxy)nicotinamide] was run?
A: The pIC50 was over 8.30.

Q: With `CC(C)(O)Cn1nc(C(=O)NC2CC3(C2)CC(Oc2ncccc2C(N)=O)C3)c2ccc(F)cc21` [Example 97, N-((aR)-6-((3-carbamoylpyridin-2-yl)oxy)spiro[3.3]heptan-2-yl)-6-fluoro-1-(2-hydroxy-2-methylpropyl)-1H-indazole-3-carboxamide, trifluoroacetate] as the molecule, how does the pIC50 read?
A: Its pIC50 is 7.30 to 8.30.
